First: Cn1ncnc1-c1cc(S(C)=O)c2[nH]c(=O)ccc2c1 (stereo not drawn)
Second: CC1CC=C(N(C)c2ccccc2)c2ncc(C(=O)O)c(=O)n21 (stereo not drawn)
The melting point of the first is higher: 224 to 227 °C for the first, 170 to 171 °C for the second.

First: CN1C(=O)Cc2cc(CBr)cnc21
Second: CS(=O)(=O)c1cc(CC(=O)O)cc2c1NC(C(F)(F)F)CC2 (stereo not drawn)
The melting point of the first is lower: 65 °C for the first, 124 to 125 °C for the second.

First: O=c1cc(-c2ccccc2SCc2ccccc2)[nH]c2ccc(Cl)cc12
Second: Nc1nc2nc(SCc3ccccc3)ncc2cc1Oc1ccc(F)cc1
The melting point of the first is higher: 198 to 202 °C for the first, 186 to 192 °C for the second.

Compared with `CC(C)(C)c1cc(-c2nn(CCCO)c3ncccc23)cc(C(C)(C)C)c1O`, `CC(C)(C)OC(=O)Nc1cc2nc(-c3ccccc3)nn2cc1F` is higher in melting point: 143 to 144 °C for the first, 180 to 188 °C for the second.

Compared with `CS(=O)(=O)OC(c1ccc(C(O)(C(F)(F)F)C(F)(F)F)cc1)(C(F)(F)F)C(F)(F)F`, `Cc1oc(-c2ccc(C(F)(F)F)cc2)nc1-c1ccc(Br)cc1` is lower in melting point: 160 °C for the first, 82.8 °C for the second.

First: O=C(O)COc1ccc2c(=O)c3c(F)cccc3oc2c1Cl
Second: Cc1cc(OC/C=C(/c2ccc(Cl)cc2)c2ccc(C#CC(C)(C)C)cc2)ccc1OCC(=O)O
The melting point of the first is higher: 300 °C for the first, 144 to 147 °C for the second.

Compared with `COc1ccccc1C(=O)Nc1cc(C)ccc1C#N`, `COC(=O)c1ccccc1NC(=O)c1ccc(OC)cc1` is lower in melting point: 147 to 149 °C for the first, 122 to 124 °C for the second.

First: Cc1nc(-c2ccc(C#N)cc2)sc1C(=O)N[C@H](C)[C@](O)(Cn1cncn1)c1ccc(Cl)cc1Cl
Second: O=C(Nc1cc(-c2ccnc3c(C(=O)c4cccs4)cnn23)ccc1F)c1c(F)cccc1F
The melting point of the first is lower: 109 to 113 °C for the first, 198 to 200 °C for the second.

First: O=C(Nc1ccc(CN2C(=O)[C@H]3CCC[C@H]3N(C(=O)CN3C(=O)c4ccccc4C3=O)c3ccccc32)cc1)c1cccc(F)c1 (relative stereo)
Second: CCCCNC(=O)Nc1ccc(N2CCCC2)cc1C(=O)NCC1CCN(C(c2ccccc2)c2ccccc2)CC1
The melting point of the first is higher: 256 to 259 °C for the first, 200 to 202 °C for the second.

First: CN1CCCC1CNC(=O)c1ccc(S(=O)(=O)N(C)C)c2c1OCCO2 (stereo not drawn)
Second: Cc1ccc(S(=O)(=O)Oc2ccc(S(=O)(=O)C3=C(C(C)C)OCC3)cc2)cc1
The melting point of the first is higher: 165 to 166 °C for the first, 103 °C for the second.

First: COc1ccc2c(c1)CC(C)(CN1CCC(c3ccccc3)CC1)NC2=O (stereo not drawn)
Second: COc1cccc(-n2c(N3CCNCC3)c(C(=O)N3CCN(C)CC3)c3ccccc32)c1
The melting point of the first is lower: 93 to 95 °C for the first, 228 to 230 °C for the second.

First: Nc1sc2c(c1C(=O)c1ccc(Br)s1)CCN(Cc1ccccc1)C2
Second: Cc1ccccc1C(=O)N1CCc2nnc(Cl)cc2C1
The melting point of the first is lower: 87 to 89 °C for the first, 123 to 126 °C for the second.

Compared with `COc1ccccc1OCCCc1nc(-c2ccc(Cl)cc2)co1`, `Fc1ccc(Cn2c(NC3CCN(CCc4cccs4)CC3)nc3ccccc32)cc1` is higher in melting point: 94 to 95 °C for the first, 152 °C for the second.

Compared with `Clc1ccc(C(Cl)Cl)cn1`, `COCCN(CCOC)c1nc(C)[nH]c2c(-c3ccc(Cl)cc3Cl)nc(C)c1-2` is higher in melting point: 60 °C for the first, 74 to 75 °C for the second.

First: O=C1N(Cc2noc(C(F)F)n2)c2ccccc2C12COc1cc3c(cc12)OCO3 (stereo not drawn)
Second: O=C1Nc2ccccc2N2CCN(CCCc3ccncc3)CC12 (stereo not drawn)
The melting point of the first is lower: 137 to 139 °C for the first, 188 to 190 °C for the second.

Compared with `O=S1C(c2ccccc2)CC2(CC1c1ccccc1)OCCO2` (stereo not drawn), `O=C(CP(=O)(O)CCCCc1ccccc1)OCc1ccccc1` is lower in melting point: 230 to 232 °C for the first, 64 to 67 °C for the second.

Compared with `O=c1[nH]c2c(n1-c1ccccc1)CCCC2`, `Oc1ccccc1N1c2ccccc2Sc2ccccc21` is lower in melting point: 220 °C for the first, 192 to 200 °C for the second.

Compared with `CCCCCCCCCCCCCCCCOc1cc(OC)c(N)cc1OC`, `CCCCC(=N)NC(=O)Nc1cccc([N+](=O)[O-])c1` is higher in melting point: 61 °C for the first, 161 to 163 °C for the second.

First: O=C(OCP(=O)(C1CCCCC1)C1CCCCC1)c1ccc(C(=O)OCP(=O)(C2CCCCC2)C2CCCCC2)cc1
Second: Cc1noc(C)c1-c1cc(OC2SCC(O)C(O)C2O)ccn1 (stereo not drawn)
The melting point of the first is higher: 226 to 228 °C for the first, 143 to 147 °C for the second.
